Measured values published in US20060105329A1, “Gene panel participating in liver regeneration” (priority 2001, published 2006).
Several values for one entry are separate records, joined by “and”; a condition that tells them apart may be missing. Equal entries are not always repeated.

Legend:
[1] = test system: liver nuclear protein p47; test: ATAC-PCR gene expression in liver of partially hepatectomized rats administered L-alanine, gene No. 46; format: in vivo, rat
Protocol: (§1) L-alanine is known to have effect of accelerating liver regeneration (Maezono K et al., Hepatology 24(5), 1996, Effect of Alanine on D-Galactosamine-Induced Acute Liver Failure in Rats; Japanese Patent Laid-open Publication No. 5-229940). Therefore, rats were subjected to partial hepatectomy and orally administered with L-alanine at 18 and 21 hours after the hepatectomy, and then gene expressions at 24 hours after the hepatectomy were examined.
(§2) Five 6 week-old F344 male rats (120 g) were preliminarily fed for 6 days by giving feed CRF-1 (Oriental Yeast) and water and then divided into 2 groups (Group 1 and Group 2) each consisting of rats with the same body weight. At 24 hours before dissection, 70% partial hepatectomy was performed by the method by Higgins-Anderson (Higgins, G M and Anderson, R M, Arch. Pathol. 12, 186-191, 1931). On the day of autopsy, the rats were starved for 6 hours before dissection. […]
(§3) Gene expressions in rat liver in each group were measured by ATAC-PCR. […] In ATAC-PCR, among the genes in the gene panel, 117 types of which expression could be measured by ATAC-PCR using the restriction enzyme MboI were measured (those except for Nos. 12, 49, 52, 55, 58, 59, 61, 69, 73, 77, 83, 90, 93, 101, 102, 108, 130, 134, 135 and 136 mentioned in Table 1).
(§4) Further, the gene expressions in Groups 1 and 2 were measured by ATAC-PCR for the genes of the gene panel and compared. […]

[2] = test system: liver proliferating cell nucleus antigen (PCNA); test: PCNA labeling index in liver of partially hepatectomized rats administered L-alanine; format: in vivo, rat
Protocol: as §1
Five 6 week-old F344 male rats (120 g) were preliminarily fed for 6 days by giving feed CRF-1 (Oriental Yeast) and water and then divided into 2 groups (Group 1 and Group 2) each consisting of rats with the same body weight. At 24 hours before dissection, 70% partial hepatectomy was performed by the method by Higgins-Anderson (Higgins, G M and Anderson, R M, Arch. Pathol. 12, 186-191, 1931). On the day of autopsy, the rats were starved for 6 hours before dissection. At 6 and 3 hours before dissection, 2 g/10 ml/kg of L-alanine was orally administered as an aqueous solution containing 0.3% aqueous carboxymethylcellulose (CMC).
After the rats were killed by bleeding under anesthesia, the dissection was performed. Liver was extracted, weighed, cryopreserved, and then subjected to the mRNA expression measurement by the ATAC-PCR method. Further, liver samples were prepared to measure the liver proliferating cell nucleus antigen (PCNA) levels.
Further, the livers of rats administered with L-alanine were stained by using anti-PCNA antibodies (antibodies directed to proliferating cell nuclear antigen (PCNA), a replication factor that accelerates activity of DNA polymerase ä), and the PCNA labeling index was measured by the method of Tanaka et al. (Tanaka et al., Byori to Rinsho, 9 (6): 791-798, 1991).
Due to the L-alanine administration, the PCNA labeling index in the livers elevated as compared with the livers of the non-administered rats (Table 2). In Table 2, Ala+represents the L-alanine-administered group, and Ala-represents the L-alanine non-administered group. Thus, hepatocytes proliferation accelerating effect due to the L-alanine administration was observed.

[3] = test system: rat genes involved in L-alanine metabolism; test: Expression analysis of genes involved in L-alanine metabolism by Taqman PCR (SYBR Green) with L-alanine administration during liver regeneration; format: in vivo; conditions: L-alanine 2 g/10 ml/kg BW orally 18 and 21 hr after 70% partial hepatectomy vs 0.3% CMC control, liver at 24 hr, values only in FIGS. 2 to 4
Protocol: Expression changes were examined with L-alanine administration during liver regeneration regarding 59 types of rat genes involved in L-alanine metabolism extracted in Example 2.
Five 6 week-old F344 male rats (120 g) were fed for 6 days by giving feed CRF-1 (Oriental Yeast) and water and then divided into 2 groups (Group 1 and Group 2) each consisting of rats with the same body weight. At 24 hours before dissection, 70% partial hepatectomy (left lobe and intermediate lobe) was performed by the method of Higgins-Anderson (Higgins, G M and Anderson, R M, Arch. Pathol. 12, 186-191, 1931). On the day of autopsy, the rats were starved for 6 hours before the dissection. At 18 and 21 hours after the partial hepatectomy, 2 g/10 ml/kg BW of L-alanine was orally administered as an aqueous solution containing 0.3% carboxymethylcellulose (Group 1), and only 0.3% carboxymethylcellulose was orally administered as a control (Group 2).
Dissection was performed at 24 hours after the partial hepatectomy. After the rats were killed by bleeding under anesthesia, livers were extracted, weighed, cryopreserved and then subjected to the mRNA expression measurement by the Taqman PCR (SYBR Green) method. […]
All the Taqman PCR (SYBR Green) reactions were performed in duplicate, and the cycle threshold (CT) was calculated. […]

liver regeneration = conditions: Maezono K et al., Hepatology 24(5), 1996; JP 5-229940; cited from earlier work
[4] = test system: leukemia-associated cytosolic phosphoprotein stathmin; test: ATAC-PCR gene expression in liver of partially hepatectomized rats administered L-alanine, gene No. 67; format: in vivo, rat
Protocol: as §1, §2, §3, §4

[5] = test system: high mobility group protein 2; test: ATAC-PCR gene expression in liver of partially hepatectomized rats administered L-alanine, gene No. 17; format: in vivo, rat
Protocol: as §1, §2, §3, §4

[6] = test system: amino acid transporter system A (ATA2); test: ATAC-PCR gene expression in liver of partially hepatectomized rats administered L-alanine, gene No. 5; format: in vivo, rat
Protocol: as §1, §2, §3, §4

[7] = test system: gene No. 117 in the gene panel; test: ATAC-PCR gene expression in liver of partially hepatectomized rats administered L-alanine, gene No. 117; format: in vivo, rat
Protocol: as §1, §2, §3, §4

nuclear RNA helicase = test: ATAC-PCR gene expression in liver of partially hepatectomized rats administered L-alanine, gene No. 36; format: in vivo, rat
Protocol: as §1, §2, §3, §4

deoxy-UTPase (dUTPase) = test: ATAC-PCR gene expression in liver of partially hepatectomized rats administered L-alanine, gene No. 68; format: in vivo, rat
Protocol: as §1, §2, §3, §4

ATA2 = target: T1, ATA2 (Rattus norvegicus, UniProt Q9JHE5); conditions: Ala transport activity of ATA2 inhibited by treatment with MeAIB; Freeman T L et al., Hepatology 1999; cited from earlier work
T1 sequence (Q9JHE5 1-504): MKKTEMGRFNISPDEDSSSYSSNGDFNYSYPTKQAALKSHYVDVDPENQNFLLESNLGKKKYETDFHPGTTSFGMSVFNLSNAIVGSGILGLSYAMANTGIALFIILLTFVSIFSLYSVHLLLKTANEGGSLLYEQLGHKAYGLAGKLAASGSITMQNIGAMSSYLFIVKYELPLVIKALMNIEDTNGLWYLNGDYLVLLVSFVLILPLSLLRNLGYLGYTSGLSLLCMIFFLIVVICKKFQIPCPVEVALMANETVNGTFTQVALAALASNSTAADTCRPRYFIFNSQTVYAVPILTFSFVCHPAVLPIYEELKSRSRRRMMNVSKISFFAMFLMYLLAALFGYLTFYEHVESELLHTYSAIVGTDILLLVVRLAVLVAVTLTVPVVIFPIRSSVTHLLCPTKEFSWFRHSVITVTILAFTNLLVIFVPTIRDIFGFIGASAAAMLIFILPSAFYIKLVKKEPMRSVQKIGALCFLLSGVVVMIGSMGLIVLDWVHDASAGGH

[8] = ATAC-PCR, liver 24 hr after hepatectomy, L-alanine-administered vs non-administered group
[9] = liver 24 hr after hepatectomy with L-alanine, ratio to gene panel expression at 0 hour
[10] = individual rats 2-1, 2-2 (Group 2, taken as Ala+), L-alanine 2 g/10 ml/kg orally 18 and 21 hr after 70% partial hepatectomy, liver at 24 hr

C[C@H](N)C(=O)O [L-alanine]
Ala+, 24 hr/Ala-, 24 hr expression ratio, gene No. 46 [1, 8]: 4.4 | Ala+ 24 hr relative expression value based on expression before hepatectomy, gene No. 46 [1, 9]: 11.4 | PCNA labeling index in the livers as compared with non-administered rats ([2]; L-alanine orally 18 and 21 hr after partial hepatectomy, liver at 24 hr): elevated | PCNA Labeling Index (%), Mean ([2]; group mean of rats 2-1, 2-2 (taken as Ala+), non-administered group mean 0.6%, liver 24 hr after hepatectomy): 64.7% | PCNA Labeling Index (%) [2, 10]: 65.5% and 64.0% | PCNA Negative cells [2, 10]: 247 and 240 | PCNA positive cells [2, 10]: 468 and 426 | Expression level of genes involved in L-alanine metabolism (genes of Table 7 and Nos. 139, 140, 151) [3]: changes in expression level due to the L-alanine administration were observed | effect on liver regeneration (liver regeneration): accelerate liver regeneration | Ala+, 24 hr/Ala-, 24 hr expression ratio, gene No. 67 [4, 8]: 4.2 | Ala+ 24 hr relative expression value based on expression before hepatectomy, gene No. 67 [4, 9]: 25.6 | Ala+, 24 hr/Ala-, 24 hr expression ratio, gene No. 17 [5, 8]: 5.5 | Ala+ 24 hr relative expression value based on expression before hepatectomy, gene No. 17 [5, 9]: 228.3 | Ala+, 24 hr/Ala-, 24 hr expression ratio, gene No. 5 ([6]; 24 h): 4.8 | Ala+ 24 hr relative expression value based on expression before hepatectomy, gene No. 5 [6, 9]: 4.8 | Ala+, 24 hr/Ala-, 24 hr expression ratio, gene No. 117 [7, 8]: 3.2 | Ala+ 24 hr relative expression value based on expression before hepatectomy, gene No. 117 [7, 9]: 0.6 | Ala+, 24 hr/Ala-, 24 hr expression ratio, gene No. 36 (nuclear RNA helicase; [8]): 4.6 | Ala+ 24 hr relative expression value based on expression before hepatectomy, gene No. 36 (nuclear RNA helicase; [9]): 25.8 | Ala+, 24 hr/Ala-, 24 hr expression ratio, gene No. 68 (deoxy-UTPase (dUTPase); [8]): 3.5 | Ala+ 24 hr relative expression value based on expression before hepatectomy, gene No. 68 (deoxy-UTPase (dUTPase); [9]): 24.9

CNC(C)(C)C(=O)O [MeAIB, alpha-(methylamino)isobutyric acid]
uptake of [3H]thymidine into DNA (ATA2): decreased
